Legend:
Assay in all cases: Ras GTP binding domain inhibition assay (labeled GTP)
[1] = molecular target: KRas G12D/Q61H double mutant (Homo sapiens (Human), UniProt P01116, G12D/Q61H); conditions: for inhibition at 20 µM: 20 μM compound, read-out: % Inhibition at 20 μM KRas G12D Q61H; for IC50: serial dilution, read-out: KRas G12D Q61H (classes E-H, IC50)
Method in brief: (§1)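 Fluorescence read-out of Cy3-/Cy5-GTP remaining bound to nickel-immobilized His-KRas after washes. Protein was coated overnight at 4° C, then exposed to compound for 3 h at room temperature before a 45 min labeled-GTP incubation.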

KRas Q61H mutant = KRas Q61H mutant (Homo sapiens (Human), UniProt P01116, Q61H); conditions: 20 μM compound; read-out: % Inhibition at 20 μM KRas Q61H
Sequence of KRas Q61H mutant (P01116-2 other isoform, or with tags, fused parts or gaps Q61H): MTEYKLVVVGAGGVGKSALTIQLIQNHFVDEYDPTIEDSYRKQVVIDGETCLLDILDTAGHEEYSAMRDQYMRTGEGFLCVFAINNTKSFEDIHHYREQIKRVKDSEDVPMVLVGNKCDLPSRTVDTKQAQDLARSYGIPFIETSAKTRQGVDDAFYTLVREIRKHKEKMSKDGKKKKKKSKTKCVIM
Method in brief: as §1

[2] = molecular target: KRas G12C/Q61H double mutant (Homo sapiens (Human), UniProt P01116, G12C/Q61H); conditions: 20 μM compound; read-out: % Inhibition at 20 μM KRas G12C Q61H
Sequence of KRas G12C/Q61H double mutant (P01116-2 other isoform, or with tags, fused parts or gaps G12C/Q61H): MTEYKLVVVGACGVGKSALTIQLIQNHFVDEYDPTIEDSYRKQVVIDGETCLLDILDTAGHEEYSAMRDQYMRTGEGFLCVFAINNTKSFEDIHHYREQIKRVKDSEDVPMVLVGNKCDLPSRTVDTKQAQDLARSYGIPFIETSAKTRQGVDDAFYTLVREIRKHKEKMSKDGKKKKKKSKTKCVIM
Method in brief: as §1

Sequence of KRas G12D/Q61H double mutant (P01116-2 other isoform, or with tags, fused parts or gaps G12D/Q61H): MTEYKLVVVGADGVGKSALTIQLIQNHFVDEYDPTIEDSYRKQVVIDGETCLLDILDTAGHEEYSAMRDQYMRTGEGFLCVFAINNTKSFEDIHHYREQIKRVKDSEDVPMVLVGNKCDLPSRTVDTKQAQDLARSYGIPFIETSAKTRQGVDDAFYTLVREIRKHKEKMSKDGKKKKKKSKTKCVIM

Compound | inhibition at 20 µM [1] [%] | inhibition at 20 µM (KRas Q61H mutant) [%] | inhibition at 20 µM [2] [%] | IC50 [1] [µM]
O=C(NCCc1nnn[nH]1)c1csc2nc(-c3ccccn3)nc(N3CCOCC3)c12 [drawing 2786] | 1 to 25 | 51 to 75 | 25 to 50 | 
COCCCCNC(=O)c1csc2nc(-c3ccccn3)nc(N3CCOCC3)c12 [drawing 2789] | 1 to 25 | 25 to 50 | 1 to 25 | 
COCCCCN(C)C(=O)c1csc2nc(-c3ccccn3)nc(N3CCOCC3)c12 [drawing 2790] | 1 to 25 | 51 to 75 | 25 to 50 | 
CNS(=O)(=O)CCCNC(=O)c1csc2nc(-c3ccccn3)nc(N3CCOCC3)c12 [drawing 2791] | 1 to 25 | 25 to 50 | 25 to 50 | 
COCCCCNC(=O)c1csc2nc(-c3ccccn3)nc(N(CCOC)CCOC)c12 [drawing 2793] | 0 | 51 to 75 | 25 to 50 | 
COc1cnc(CN)[nH]c1=O [drawing 2801] | 25 to 50 | 25 to 50 | 1 to 25 | 
COc1ccc(N2CCN(C(=O)c3csc4c(O)nc(-c5ccccn5)nc34)CC2)cc1O [drawing 2802] | 1 to 25 | 51 to 75 | 51 to 75 | 
O=C(c1csc2c(O)nc(-c3ccccn3)nc12)N1CCN(c2ccc(O)c(Cl)c2)CC1 [drawing 2803] | 51 to 75 | 51 to 75 | 51 to 75 | 11 to 30
CC(c1ccccc1)N1CCN(C(=O)c2csc3c(O)nc(-c4ccccn4)nc23)CC1 (centres unmarked) [drawing 2804] | 51 to 75 | 76 to 100 | 51 to 75 | 11 to 30
O=C(c1csc2c(O)nc(-c3ccccn3)nc12)N1CCOC(CN2CCOCC2)C1 (centres unmarked) [drawing 2805] | 1 to 25 | 51 to 75 | 25 to 50 | 
COCCCCNC(=O)c1csc2nc(-c3ccccn3)nc(N3CCS(=O)(=O)CC3)c12 [drawing 2826] | 1 to 25 | 1 to 25 | 1 to 25 | 

Now from value to compound, other results behind:

inhibition at 20 µM [1] [%] | inhibition at 20 µM (KRas Q61H mutant) [%] | inhibition at 20 µM [2] [%] | Compound | IC50 [1] [µM]
1 to 25 | 1 to 25 | 1 to 25 | O=C(NCCc1ccnc(O)c1)c1csc2nc(-c3ccccn3)nc(N3CCOCC3)c12 [drawing 2783] | 
1 to 25 | 25 to 50 | 25 to 50 | O=C(NCCc1cncnc1)c1csc2nc(-c3ccccn3)nc(N3CCOCC3)c12 [drawing 2784] | 
0 | 1 to 25 | 25 to 50 | O=C(NCCc1ccc(O)c(O)c1)c1csc2nc(-c3ccccn3)nc(N3CCOCC3)c12 [drawing 2785] | 
1 to 25 | 25 to 50 | 25 to 50 | N#Cc1cccc(CCNC(=O)c2csc3nc(-c4ccccn4)nc(N4CCOCC4)c23)c1 [drawing 2787] | 
1 to 25 | 51 to 75 | 51 to 75 | CN(CCc1cccc(C#N)c1)C(=O)c1csc2nc(-c3ccccn3)nc(N3CCOCC3)c12 [drawing 2788] | 
1 to 25 | 25 to 50 | 1 to 25 | COCCN(CCOC)c1nc(-c2ccccn2)nc2scc(C(=O)NCCc3ccc(OC)nc3)c12 [drawing 2792] | 
1 to 25 | 51 to 75 | 51 to 75 | CC(C(=O)Nc1ccnc(-c2ccccn2)n1)c1ccc(C#N)cc1 (centres unmarked) [drawing 2794] | 
1 to 25 | 25 to 50 | 1 to 25 | COc1ccc2c(c1)CCC2C(=O)Nc1ccnc(-c2ccccn2)n1 (centres unmarked) [drawing 2795] | 
0 | 51 to 75 | 25 to 50 | N#Cc1ccc(COCC(=O)Nc2ccnc(-c3ccccn3)n2)cc1 [drawing 2796] | 
1 to 25 | 51 to 75 | 51 to 75 | Cc1cnc(-c2ccccn2)nc1NC(=O)C(C)c1ccc(C#N)cc1 (centres unmarked) [drawing 2797] | 
1 to 25 | 76 to 100 | 76 to 100 | CC(C(=O)Nc1nc(-c2ccccn2)nc2sccc12)c1ccc(C#N)cc1 (centres unmarked) [drawing 2798] | 
25 to 50 | 76 to 100 | 51 to 75 | O=C(c1csc2c(O)nc(-c3ccccn3)nc12)N1CCNC(c2ccccc2Cl)C1 (centres unmarked) [drawing 2806] | 
1 to 25 | 76 to 100 | 76 to 100 | O=C(c1csc2c(O)nc(-c3ccccn3)nc12)N1CCNC(c2ccc(F)cc2)C1 (centres unmarked) [drawing 2807] | 
51 to 75 | 51 to 75 | 51 to 75 | COc1cccc(CC2CN(C(=O)c3csc4c(O)nc(-c5ccccn5)nc34)CCN2)c1 (centres unmarked) [drawing 2830] | 

From patent publication US10940139B2, “Compounds that interact with the Ras superfamily for the treatment of cancers, inflammatory diseases, rasopathies, and fibrotic disease” (Shy Therapeutics LLC, priority 2017, dated 2021)
